# “Also recorded” adds a separate entry of the source. Like-named read-outs stand apart in the source and are kept apart here.
# Assays:
# [1] = target: SRPK1 (Homo sapiens, UniProt Q96SB4); assay: In vitro kinase assay (Kinase-Glo), SRPK1; type: biochemical; conditions: for activity in the in vitro SRPK1 kinase assay: words
# [2] = tested on: VEGF protein expression; assay: PanVEGF and VEGFxxxb ELISA; type: cell-based, human; conditions: FIG. 2C
# Method: PanVEGF and VEGFxxxb enzyme-linked immunosorbent assay (ELISA).
# One μg/ml pan-VEGF capture antibody (Duoset VEGF ELISA DY-293; R&D systems) was incubated overnight at room temperature. The plates were blocked (Superblock; Thermo Scientific) and serial dilutions of recombinant human (rh)VEGF165 or rhVEGF165b standards (ranging from 4 ng/ml to 16.25 pg/ml) were added, incubated alongside sample lysates, typically diluted 1:10. The plate was incubated for one hour at 37° C. with shaking, washed and incubated with 100 μl/well of either biotinylated goat anti-human VEGF (0.1 μg/ml; R & D systems) or mouse anti-human VEGF165b (0.25 μg/ml) for one further hour at 37° C. After washing, 100 μl/well of Horseradish Peroxidase (HRP)-conjugated streptavidin (1:200; R&D Systems) was added, and plates were left at room temperature for 20 minutes.
# The plates were washed and colour change induced with substrate A and B (DY-999; R&D Systems) for 20 mins under light protection. The reaction was stopped by addition of 100 μl/well of 1M H2SO4 and the absorbance was read immediately in an ELISA plate reader (Dynex Technologies Opsys MR system plate reader) at 450 nm with a control reading at 570 nm. Revelation Quicklink 4.25 software was also used to calculate a standard curve from mean absorbance values of standards enabling the estimation of VEGF concentration for each sample.
# [3] = tested on: SRPK1 expression in ARPE-19 cells; assay: SRPK1 expression in ARPE-19 cells (western blot); type: cell-based, human; conditions: 10 μM, up to six days
# [4] = target: SRPK2 (Homo sapiens, UniProt P78362); assay: In vitro kinase assay, SRPK2; type: biochemical
# [5] = tested on: SRSF1 expression in ARPE-19 cells; assay: SRSF1 expression relative to tubulin in ARPE-19 cells; type: cell-based, human; conditions: 72 hours up to six days
# Method: Protein samples (30-50 μg) were mixed with 1× sodium-dodecyl sulphate (SDS) loading buffer (100 mM Tris-HCl, 4% SDS, 20% glycerol, 0.2% (w/v) bromophenol blue, and 5% final concentration 2-mercaptoethanol, pH6.8). To denature the protein, samples were boiled for five minutes at 100° C.
# Samples were subjected to polyacrylamide gel electrophoresis (PAGE) on a 12% SDS-PAGE gel at 90V in ice cold running buffer (25 mM Tris-HCl, 250 mM glycine, 0.1% SDS, pH8.3) for approximately 2.5 hours. The separated proteins were then electrophoretically blotted to a methanol-activated polyvinylidene fluoride (PVDF) membrane (Fisher Scientific) by wet transfer for two hours at 90V in transfer buffer (50 mM Tris-HCl, 38 mM glycine, 20% methanol, pH8.3). […] The washes were repeated and the bands were detected using the Enhanced Chemoluminiscence (ECL) SuperSignal West Femto Maximum Sensitivity Substrate kit (Pierce).
# The SRPK inhibitors were tested in a series of in vitro assays to determine the effect of treatment on VEGF isoform expression. Initially the effect of compound treatment on SRPK1 and SRSF1 expression was determined.
# [6] = tested on: VEGF165 mRNA isoforms in primary RPE cells; assay: RT-PCR for VEGF165 / VEGF165b mRNA in primary RPE cells; type: cell-based, human; conditions: 5 μM, 24 hours, primary RPE cells
# Method: ID NO: 5)). […] Cells were treated with […]6 and 7 and the PCR repeated.
# [7] = tested on: CNV lesion area; conditions: cited from earlier work
# [8] = tested on: laser-induced CNV; assay: Laser-induced mouse CNV model, topical eye drops; type: in vivo
# Method: (§1) Laser Lesion Induction Protocol
# (§2) Six to eight week-old C57/B6 mice (B&K Laboratories) and adult Norway-Brown rats (Harlan Laboratories) were anaesthetized with an intraperitoneal injection of a mixture of 50 mg/kg ketamine and 0.5 mg/kg medetomidine. The pupils were dilated with 2.5% phenylephrine hydrochloride and 1% tropicamide. Four photocoagulation lesions were delivered with a krypton red laser (Mice: 250 mW, 0.01 s, 75 μm, Rats: 200 mW, 0.01 s, 75 μm, IRIS Medical 810 nm Oculight Slx laser) between the retinal vessels in a peripapillary distribution at a distance of 1-2 disc-diameters in each eye. Only laser lesions with a subretinal bubble at the time of treatment were included in the study. […] Animals were culled on either day 4 or day 14 and eyes were either unfixed for retinal dissection and protein extraction, or fixed and enucleated and choroids stained for isolectin-B4 and examined.
# We performed a dose response trial investigating SRPIN340 topical eye drops. SRPIN340 was dissolved in a previously described drug delivery vehicle (Doukas et al., 2008) and administered twice daily. Fourteen days following laser insult choroids were fixed and flatmounted for isolectin staining and retinae were extracted for RNA analysis.
# [9] = in vivo; conditions: CD-1, mouse, topical or ocular, 5 ug
# [10] = tested on: laser-induced CNV; assay: Laser-induced mouse CNV model, intravitreal injection; type: in vivo; conditions: for area of neovascular lesions, mouse laser-induced CNV model: discussion summary, route not stated; for neovascular area vs control injected eyes: two intravitreal injections of 10 ng
# Method: as §1, §2
# [11] = tested on: laser-induced CNV; assay: Laser-induced rat CNV model, intravitreal injection; type: in vivo; conditions: intravitreal (SRPIN340 25 ng)
# Method: as §1, §2
# MVRL10 therefore appeared to be a relatively specific inhibitor of SRPK1. To determine whether SRPK1 inhibition could inhibit CNV in animal models we tested these compounds alongside each other in a laser-induced mouse CNV model. […]
# [12] = tested on: VEGF expression in retinal protein; assay: Retinal protein VEGF expression by western blot, rat CNV model; type: in vivo
# Method: as §2
# Retinal protein from SRPIN340 and saline treated eyes 4 days after initial treatment was assessed for VEGF expression by western blot. […] The expression of VEGFxxxb isoforms was investigated using mouse monoclonal 561 antibody (R&D systems).
# [13] = Pharmacokinetics in the eye after intravitreal injection (mass spectrometry); type: in vivo, mouse; conditions: 20 ng intravitreal
# [14] = tested on: VEGF165 mRNA in the retina; assay: VEGF165 mRNA expression in retinae after topical treatment; type: in vivo; conditions: mouse, day 14
# [15] = Pharmacokinetics in the eye after topical application (mass spectrometry)
# [16] = tested on: neovascular AMD; conditions: 0.5 mg monthly, at one year; cited from earlier work
# [17] = Table 1, read-out: IC50 (nM) for SRPK1
# Sequence of SRPK1 (Q96SB4 whole entry, species assumed): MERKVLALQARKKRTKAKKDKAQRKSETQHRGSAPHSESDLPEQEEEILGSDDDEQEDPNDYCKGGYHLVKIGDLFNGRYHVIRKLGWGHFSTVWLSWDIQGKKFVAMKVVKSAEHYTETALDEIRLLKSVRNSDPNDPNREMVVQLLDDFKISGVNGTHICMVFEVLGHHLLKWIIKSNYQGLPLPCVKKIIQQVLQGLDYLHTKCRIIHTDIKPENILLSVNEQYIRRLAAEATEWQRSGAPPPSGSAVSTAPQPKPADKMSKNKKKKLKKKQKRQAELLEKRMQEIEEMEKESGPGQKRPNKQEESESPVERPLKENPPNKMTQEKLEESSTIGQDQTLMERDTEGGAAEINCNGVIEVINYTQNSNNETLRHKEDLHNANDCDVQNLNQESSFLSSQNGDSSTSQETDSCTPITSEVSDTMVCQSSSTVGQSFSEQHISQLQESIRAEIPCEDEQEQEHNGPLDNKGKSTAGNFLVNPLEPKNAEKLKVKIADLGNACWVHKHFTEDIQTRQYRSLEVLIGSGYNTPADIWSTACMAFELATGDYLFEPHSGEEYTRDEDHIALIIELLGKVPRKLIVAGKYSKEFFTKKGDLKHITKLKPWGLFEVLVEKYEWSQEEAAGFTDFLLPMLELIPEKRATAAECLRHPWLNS
# Sequence of SRPK2 (P78362 whole entry, species assumed): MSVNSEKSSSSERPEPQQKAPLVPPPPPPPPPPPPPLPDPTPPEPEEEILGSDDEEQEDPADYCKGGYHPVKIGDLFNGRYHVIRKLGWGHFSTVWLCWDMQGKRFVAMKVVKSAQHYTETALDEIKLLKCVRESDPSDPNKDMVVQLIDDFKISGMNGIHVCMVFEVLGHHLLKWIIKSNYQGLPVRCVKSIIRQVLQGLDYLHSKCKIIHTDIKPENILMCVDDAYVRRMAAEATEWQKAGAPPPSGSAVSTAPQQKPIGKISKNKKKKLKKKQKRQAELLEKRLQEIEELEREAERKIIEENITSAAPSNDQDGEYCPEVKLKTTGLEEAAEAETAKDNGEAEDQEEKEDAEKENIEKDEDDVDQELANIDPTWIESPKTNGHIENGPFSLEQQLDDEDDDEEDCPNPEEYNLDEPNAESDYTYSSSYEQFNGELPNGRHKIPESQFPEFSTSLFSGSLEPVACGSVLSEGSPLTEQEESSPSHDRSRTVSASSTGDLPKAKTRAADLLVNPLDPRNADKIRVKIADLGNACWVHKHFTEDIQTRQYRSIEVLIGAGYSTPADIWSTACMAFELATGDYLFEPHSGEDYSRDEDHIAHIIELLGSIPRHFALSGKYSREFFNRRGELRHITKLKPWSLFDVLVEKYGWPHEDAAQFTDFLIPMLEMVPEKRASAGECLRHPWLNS
molecule,measurement,setting,value
O=C(Nc1cc(C(F)(F)F)ccc1NCc1cccnc1)c1ccc(-c2cccnc2)o1 [SPHINX9],IC50,[1]; [17],> 10000 nM
same,activity in the in vitro SRPK1 kinase assay,[1],no activity
"O=C(Nc1cc(C(F)(F)F)ccc1N1CCOCC1)c1cccnc1 [MVRL09, N-[2-(morpholin-4-yl)-5-(trifluoromethyl)phenyl]pyridine-3-carboxamide]",VEGF expression relative to total protein,[2],significantly reduced total VEGF expression
same,IC50,"[1]; FIG. 1B, read-out: IC50 SRPK1 kinase",> 10000 nM
same,SRPK1 expression,[3],failed to affect SRPK1 expression
same,inhibition of SRPK2,[4]; words,no inhibition
same,expression of SRSF1 relative to a tubulin control,[5],reduced expression of SRSF1
same,expression of VEGF165b mRNA,[6],induced clear expression of VEGF165b
same,expression of VEGF165 mRNA relative to GAPDH,[6],reduced the expression VEGF65 at RNA level
Cc1cc(-c2cc(OC(=O)c3ccccc3)ccc2Cl)cc2nnc(Nc3ccc(OCCN4CCCC4)cc3)nc12 [TG100801],CNV lesion area,[7]; twice daily topical 0.6%,not
same,CNV lesion area,[7]; twice daily topical 1%,significantly reduced CNV lesion area
CN1CCN(c2ccc(C(F)(F)F)cc2NC(=O)c2ccc(-c3cccnc3)o2)CC1 [SPHINX12],IC50,[1]; [17],367 nM
"O=C(Nc1cc(C(F)(F)F)ccc1N1CCCCC1)c1ccncc1 [SRPIN340, N-[2-(1-piperidinyl)-5-(trifluoromethyl)phenyl]isonicotinamide]","CNV area, 0.01% solution","[8]; 0.01% solution in gel drug delivery vehicle, topical",significant inhibition of CNV area
same,EC50,"[8]; Mus musculus, topical, read-out: EC50 on CNV, topical",3.19 µg/mL
same,"CNV formation, eye drop","[8]; mouse, topical",significantly inhibited CNV formation; also recorded: significantly suppressed CNV
same,"EC50 on CNV lesion area, topical drops","[8]; mouse, twice daily eye drops, total dose",640 ng
same,VEGF expression relative to total protein,[2],significantly reduced total VEGF expression
same,IC50,[1],960 nM
same,half-life,[9],35 min
same,"area of neovascular lesions, mouse laser-induced CNV model",[10],achieving significance
same,EC50 on CNV area,"[10]; mouse, intravitreal, total injected dose",1.28 ng
same,neovascular area vs control injected eyes,[10]; mouse,significantly reduced neovascular area
same,CNV area vs saline injected controls,[11],significantly reduced the CNV area
same,SRPK1 expression,[3],failed to affect SRPK1 expression
same,IC50,[4],7.4 µM
same,ratio of pro to anti-VEGF isoforms in retinal protein,"[12]; rat, 4 days after initial treatment",No difference in the ratio of pro to anti-VEGF isoforms
same,VEGF expression in retinal protein,"[12]; rat, 4 days after initial treatment, western blot",decrease in the expression of VEGF; also recorded: reduced CNV area and total VEGF protein expression
same,expression of VEGFxxxb isoforms in rat retinae,[12]; vs saline controls,no change in the expression of VEGFxxxb isoforms
same,concentration in the eye,[13]; over a 2 day period,> 10 ng/mL
same,half-life,"[13]; mouse, eye tissue, 1-48 hours curve fit, read-out: sustained half-life in the eye (converted)",1320 min
same,VEGF165 mRNA expression in the retinae,[14],reduced; also recorded: near significant reduction in VEGF165
same,expression of SRSF1 relative to a tubulin control,[5],reduced expression of SRSF1
same,detection in the eye,[15]; 48 hours after a single topical administration,still detectable
same,systemic detection,[15]; after a single topical administration,not detected systemically
same,fraction of total applied dose detected in the eye,"[15]; single topical 5 μg, after 1 hour, whole eye",3.5%
same,fraction of applied dose detected in the posterior chamber,"[15]; single topical 5 μg, after 12 hours",0.15%
same,expression of VEGF165 mRNA relative to GAPDH,[6],reduced the expression VEGF65 at RNA level
CN(C)CCN1CCN(c2ccc(C(F)(F)F)cc2NC(=O)c2ccc(-c3cccnc3)o2)CC1 [SPHINX6],IC50,"[1]; FIG. 7, read-out: SRPK1 inhibition IC50",173 nM
same,IC50,[1]; [17],177 nM
CN(C)CCNc1ccc(C(F)(F)F)cc1NC(=O)c1ccc(-c2cccnc2)o1 [SPHINX8],IC50,[1]; [17],9310 nM
same,activity in the in vitro SRPK1 kinase assay,[1],no activity
O=C(Nc1cc(C(F)(F)F)ccc1NCc1cccnc1)c1ccc(-c2ccncc2)o1 [SPHINX10],IC50,[1]; [17],> 10000 nM
same,activity in the in vitro SRPK1 kinase assay,[1],no activity
"Cc1ccc(C(=O)Nc2cc(C(F)(F)F)ccc2N2CCOCC2)o1 [SPHINX, 5-methyl-N-[2-(morpholin-4-yl)-5-(trifluoromethyl)phenyl]furan-2-carboxamide]","area of neovascular lesions, mouse laser-induced CNV model",[10],achieving significance
same,neovascular area vs control injected eyes,[10]; mouse,significantly reduced neovascular area
same,SRPK1 expression,[3],did appear to reduce SRPK1 expression
same,preference for SRPK1 over SRPK2,[4],greater than 10 fold
same,inhibition at 10 µM,[4]; at 10 μM,10%
CN1CCN(c2ccc(C(F)(F)F)cc2NC(=O)c2ccc(C#N)o2)CC1 [SPHINX14],IC50,[1]; [17],1270 nM
"Lucentis: humanized anti-VEGF antibody fragment, FDA approved for the treatment of neovascular AMD (antibody, chains of the INN, looked up, V domains shown, Fab, humanized anti-VEGF antibody fragment, FDA approved for the treatment of neovascular AMD) VH: EVQLVESGGGLVQPGGSLRLSCAASGYDFTHYGMNWVRQAPGKGLEWVGWINTYTGEPTYAADFKRRFTFSLDTSKSTAYLQMNSLRAEDTAVYYCAKYPYYYGTSHWYFDVWGQGTLVTVSS VL: DIQLTQSPSSLSASVGDRVTITCSASQDISNYLNWYQQKPGKAPKVLIYFTSSLHSGVPSRFSGSGSGTDFTLTISSLQPEDFATYYCQQYSTVPWTFGQGTKVEIK",patients who maintained visual acuity (loss of <15 letters),[16],approximately 95%
same,patients with improved vision (gain of ≥15 letters),[16],≤ 40%

# Source: patent US10301264B2, “Compounds useful for treating ocular neovasculan” (The University of Nottingham, priority 2012, dated 2019)
